Experiments:
Assay type in all cases: biochemical
EZH2PRC2 mutant Y641N = EZH2PRC2 mutant Y641N (Homo sapiens, UniProt Q15910, Y641N); assay: EZH2PRC2 mutant Y641N nucleosome assay; details: read-out: EZH2PCR2 Mutant Y641N IC50
Experimental: Nucleosome Assay Protocol:
A. Compound preparation • 1. Prepare 10 mM stock solutions in 100% DMSO from solid material • 2. Serial dilute 10 mM compound stocks either 2 or 3-fold in 100% DMSO to generate compounds for 11 point dose response
B. Reagent preparation • 1. Prepare 1× assay buffer containing 100 mM Tris pH 8.5, 4 mM DTT and 0.01% Tween-20 • 2. Dilute purified HeLA oligonucleosomes and recombinant histone H1 (New England Biolabs) in assay buffer to 1.67×. • 3. Dilute EZH2 4 protein complex (EZH2, EED, SUZ12, RbAp48) to 3.5× in assay buffer • 4. Prepare 10×^3H SAM solution in assay buffer using 0.94 μCi/well of radioactive SAM (Perkin Elmer) and sufficient non-labeled SAM (Sigma) for 1.5 μM final concentration. • 5. Dilute TCA to 20% in DI water
C. Enzyme reaction • 1. Final reaction conditions are 5 nM EZH2 4-protein complex, 1.5 μM SAM, 25 μg/mL oligonucleosomes, 50 nM rH1 in a 50 μl reaction volume. • 2. Add 1 μl of diluted compound to the assay plate (96-well V-bottom polypropylene plates) or 1 μl of DMSO for control wells. • 3. Add 30 μl of nucleosomes to the assay plate • 4. Add 14 μl of EZH2 4 protein complex to the assay plate • 5. Add 5 μl of ^3H SAM to start the reaction. • 6. Stop the reaction after 60 minutes with the addition of 100 μl of 20% TCA • 7. Transfer 150 μl of quenched reaction into a prepared filterplate (Millipore #MSIPN4B10) • 8. Apply vacuum to the filterplate to filter the reaction mix through the membrane. • 9. Wash the filterplate with 8×200 μl of PBS, blot dry and dry in an oven for 30 minutes • 10. Add 50 μl of microscint-20 scintillation fluid (Perkin Elmer) to each well, wait 30 minutes and count on a liquid scintillation counter.
D. Data analysis • 1. IC50 values were determined by fitting the data to a 4-parameter IC50 equation using proprietary curve fitting software.
Wild type (WT) EZH2% Effect at 20 μM and IC50 values (μM) generated in WT EZH2 or EZH2PRC2 mutant Y641N nucleosome assays are provided in Table 3 below. A blank entry in the table indicates the data was not generated in that assay.

[1] = target: WT EZH2 (EZH2 4 protein complex: EZH2, EED, SUZ12, RbAp48) (Homo sapiens, UniProt Q15910); assay: WT EZH2 nucleosome assay; details: compound at 20 μM; nucleosome assay
WT EZH2 (EZH2 4 protein complex: EZH2, EED, SUZ12, RbAp48) (Homo sapiens, UniProt Q15910), sequence (Q15910 whole entry): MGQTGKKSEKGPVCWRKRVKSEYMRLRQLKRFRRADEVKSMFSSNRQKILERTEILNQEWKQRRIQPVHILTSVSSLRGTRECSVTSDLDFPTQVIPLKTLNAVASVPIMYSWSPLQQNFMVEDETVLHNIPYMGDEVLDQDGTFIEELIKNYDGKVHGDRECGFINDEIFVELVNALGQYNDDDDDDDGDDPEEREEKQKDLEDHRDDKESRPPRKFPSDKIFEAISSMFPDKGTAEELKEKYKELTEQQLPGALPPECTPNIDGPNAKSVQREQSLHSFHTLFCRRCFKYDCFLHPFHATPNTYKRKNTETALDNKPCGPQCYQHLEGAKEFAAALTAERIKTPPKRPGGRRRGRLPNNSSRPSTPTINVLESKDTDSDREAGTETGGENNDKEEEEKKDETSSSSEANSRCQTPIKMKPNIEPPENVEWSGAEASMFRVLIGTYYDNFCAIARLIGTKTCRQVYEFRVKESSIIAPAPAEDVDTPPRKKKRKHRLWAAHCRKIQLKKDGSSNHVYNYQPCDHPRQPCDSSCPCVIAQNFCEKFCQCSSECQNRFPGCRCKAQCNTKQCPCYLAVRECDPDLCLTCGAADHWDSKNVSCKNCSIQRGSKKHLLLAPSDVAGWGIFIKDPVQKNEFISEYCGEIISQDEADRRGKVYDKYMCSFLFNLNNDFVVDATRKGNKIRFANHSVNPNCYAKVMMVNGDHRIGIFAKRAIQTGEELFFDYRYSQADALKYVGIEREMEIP
WT EZH2 (EZH2 4 protein complex: EZH2, EED, SUZ12, RbAp48) (Homo sapiens, UniProt Q15910), sequence (O75530 whole entry partner): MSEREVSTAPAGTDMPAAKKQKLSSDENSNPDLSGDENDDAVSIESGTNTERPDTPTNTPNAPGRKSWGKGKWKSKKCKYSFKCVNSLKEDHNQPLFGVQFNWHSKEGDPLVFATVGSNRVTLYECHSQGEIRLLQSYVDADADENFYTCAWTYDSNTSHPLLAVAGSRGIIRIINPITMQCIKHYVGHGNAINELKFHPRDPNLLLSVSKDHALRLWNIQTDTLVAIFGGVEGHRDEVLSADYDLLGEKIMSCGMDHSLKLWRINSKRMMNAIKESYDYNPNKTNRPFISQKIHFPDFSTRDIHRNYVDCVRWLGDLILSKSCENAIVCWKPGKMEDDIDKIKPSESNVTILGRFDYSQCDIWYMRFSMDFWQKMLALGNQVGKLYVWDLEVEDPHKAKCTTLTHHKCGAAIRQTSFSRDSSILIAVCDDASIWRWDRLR
WT EZH2 (EZH2 4 protein complex: EZH2, EED, SUZ12, RbAp48) (Homo sapiens, UniProt Q15910), sequence (Q15022 whole entry partner): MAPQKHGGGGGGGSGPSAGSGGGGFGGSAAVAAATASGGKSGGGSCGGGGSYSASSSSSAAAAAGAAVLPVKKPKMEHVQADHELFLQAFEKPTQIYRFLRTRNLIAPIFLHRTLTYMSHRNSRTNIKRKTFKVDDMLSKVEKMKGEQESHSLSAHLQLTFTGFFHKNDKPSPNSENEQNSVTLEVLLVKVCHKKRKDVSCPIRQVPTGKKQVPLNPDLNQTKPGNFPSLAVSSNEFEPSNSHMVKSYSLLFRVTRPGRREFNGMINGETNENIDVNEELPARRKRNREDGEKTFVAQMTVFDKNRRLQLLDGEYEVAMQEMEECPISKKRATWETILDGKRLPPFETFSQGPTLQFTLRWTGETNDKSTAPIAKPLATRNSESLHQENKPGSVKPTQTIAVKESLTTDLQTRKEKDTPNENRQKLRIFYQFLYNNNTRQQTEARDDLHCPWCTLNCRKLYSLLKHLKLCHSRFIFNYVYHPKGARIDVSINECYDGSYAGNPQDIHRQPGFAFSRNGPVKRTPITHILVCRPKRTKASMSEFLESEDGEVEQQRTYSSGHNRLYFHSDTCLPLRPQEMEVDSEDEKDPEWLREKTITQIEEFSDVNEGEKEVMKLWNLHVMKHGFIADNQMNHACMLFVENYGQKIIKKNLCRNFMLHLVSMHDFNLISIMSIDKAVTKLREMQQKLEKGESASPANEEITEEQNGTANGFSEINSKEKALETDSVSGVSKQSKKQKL
WT EZH2 (EZH2 4 protein complex: EZH2, EED, SUZ12, RbAp48) (Homo sapiens, UniProt Q15910), sequence (Q09028 whole entry partner): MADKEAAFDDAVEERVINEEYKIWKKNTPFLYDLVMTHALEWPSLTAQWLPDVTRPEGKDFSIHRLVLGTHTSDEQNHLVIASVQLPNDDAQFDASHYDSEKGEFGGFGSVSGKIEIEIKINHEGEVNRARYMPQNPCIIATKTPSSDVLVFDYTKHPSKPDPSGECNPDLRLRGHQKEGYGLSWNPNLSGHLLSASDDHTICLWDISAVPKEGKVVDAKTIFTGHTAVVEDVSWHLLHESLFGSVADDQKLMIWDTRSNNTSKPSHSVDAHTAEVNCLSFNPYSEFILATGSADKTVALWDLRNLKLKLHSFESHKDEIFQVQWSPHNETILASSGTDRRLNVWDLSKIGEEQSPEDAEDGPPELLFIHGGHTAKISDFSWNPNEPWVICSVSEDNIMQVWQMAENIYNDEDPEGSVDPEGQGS
Procedure, shortened: (§1)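 IC50 values come from 4-parameter fits of 11-point dose responses, with % effect also given at 20 μM. Reactions held HeLa oligonucleosomes (25 μg/mL), rH1 (50 nM), 1.5 μM tritiated SAM and 5 nM enzyme complex at pH 8.5 Tris/DTT/Tween; stopped by TCA after 60 min, filtered and scintillation-counted.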

[2] = target: WT EZH2 (EZH2 4 protein complex: EZH2, EED, SUZ12, RbAp48) (Homo sapiens, UniProt O75530+Q09028+Q15022+Q15910); assay: WT EZH2 nucleosome assay; details: nucleosome assay, 5 nM EZH2 4-protein complex, 1.5 μM SAM; read-out: WT EZH2 IC50
WT EZH2 (EZH2 4 protein complex: EZH2, EED, SUZ12, RbAp48) (Homo sapiens, UniProt O75530+Q09028+Q15022+Q15910), sequence (Q15910 whole entry): as the sequence (Q15910 whole entry) above
WT EZH2 (EZH2 4 protein complex: EZH2, EED, SUZ12, RbAp48) (Homo sapiens, UniProt O75530+Q09028+Q15022+Q15910), sequence (O75530 whole entry partner): as the sequence (O75530 whole entry partner) above
WT EZH2 (EZH2 4 protein complex: EZH2, EED, SUZ12, RbAp48) (Homo sapiens, UniProt O75530+Q09028+Q15022+Q15910), sequence (Q15022 whole entry partner): as the sequence (Q15022 whole entry partner) above
WT EZH2 (EZH2 4 protein complex: EZH2, EED, SUZ12, RbAp48) (Homo sapiens, UniProt O75530+Q09028+Q15022+Q15910), sequence (Q09028 whole entry partner): as the sequence (Q09028 whole entry partner) above
Procedure, shortened: as §1

EZH2PRC2 mutant Y641N, sequence (Q15910 whole entry Y641N): as the sequence (Q15910 whole entry) above, with Y641N counted along it
EZH2PRC2 mutant Y641N, sequence (O75530 whole entry partner): as the sequence (O75530 whole entry partner) above
EZH2PRC2 mutant Y641N, sequence (Q15022 whole entry partner): as the sequence (Q15022 whole entry partner) above
EZH2PRC2 mutant Y641N, sequence (Q09028 whole entry partner): as the sequence (Q09028 whole entry partner) above

Row | IC50 (EZH2PRC2 mutant Y641N) | % Effect in WT EZH2 at 20 μM [1] | IC50 [2] | Structure (SMILES)
1 | 11.2 µM | 83.654% | 0.87 µM | Cc1cc(C)c(CNC(=O)c2cccc(OC(C)C)c2C)c(=O)[nH]1 [Example 32, N-((4,6-dimethyl-2-oxo-1,2-dihydropyridin-3-yl)methyl)-3-isopropoxy-2-methylbenzamide]
2 | 43.1 µM | 71.325% | 7.52 µM | COc1cccc(C(=O)NCc2c(C)cc(C)[nH]c2=O)c1Cl [Example 79, 2-chloro-N-[(4,6-dimethyl-2-oxo-1,2-dihydropyridin-3-yl)methyl]-3-methoxybenza-mide]
3 | > 200 µM | 62.306% | 141 µM | COc1cccc(C(=O)NCc2c(C)cc(C)[nH]c2=O)c1C#N [Example 135, 2-cyano-N-[(4,6-dimethyl-2-oxo-1,2-dihydropyridin-3-yl)methyl]-3-methoxybenz-amide]
